Columns and labels:
[1] = test system: Lytechinus pictus; test: Inhibition of SERCA in sea urchin eggs assessed as Ca2+ leak rate; parameters: scale not given: the % may be the effect or the level left
[2] = test system: Lytechinus pictus; test: Inhibition of SERCA in sea urchin eggs assessed as Ca2+ leak rate at 10 uM
[3] = Inhibition of SERCA in sea urchin eggs assessed as Ca2+ leak rate at 10 uM relative to thapsigargin; parameters: species or system Lytechinus pictus

For `C=C[C@]1(C)CC[C@H]2C(C)(C)[C@H]3C=C4C=C(OC)OC(=O)[C@@H]1[C@@]42OC3=O`, the Activity [1] was 65.4%.
`C=C[C@@]1(C)CC[C@H]2[C@](C)(C(=O)OC)[C@H]3C=C4C=C(OC)OC(=O)[C@@H]1[C@@]42OC3=O` showed an Activity [1] of 61.4%.
Molecule `C=C[C@@]1(C)CC[C@H]2C(C)(C)[C@H]3C=C4C=C(OC)OC(=O)[C@@H]1[C@@]42OC3=O` has an Activity [1] of 65.4%.
Work on `C/C=C(/C)C(=O)O[C@H]1C(C)=C2[C@H]([C@@H]1OC(=O)CCCCCCC)[C@@](C)(OC(C)=O)C[C@H](OC(=O)CCC)[C@@]1(O)[C@H]2OC(=O)[C@@]1(C)O` [THAPSIGARGIN] yielded an Activity [2] of 81 RFU/min and a Ki [3] of 2 pM.
For `C=C[C@@]1(C)CC[C@H]2[C@](C)(COC(C)=O)[C@H]3C=C4C=C(OC)OC(=O)[C@@H]1[C@@]42OC3=O`, the Activity [1] was 64.2%.

— ChEMBL document CHEMBL1141773, “SERCA-inhibiting activity of C-19 terpenolides from Thapsia garganica and their possible biogenesis” (J Nat Prod, 2005)
